Blank lines part the entries; values can stand above or below the molecule they belong to. Where a SMILES comes first, the peptide text is derived from it. The star is where a group is joined. Cbz = O=C(OCc1ccccc1)*
Assays:
PGC-1β [1] = experiment: PGC-1β protein and mRNA level in treated HEK 293 cells; format: cell-based
Method: Firstly, synoviolin knock down was performed by siRNA in HEK 293 cells. Synoviolin siRNA was prepared in accordance with already reported article (see, Yamasaki, S., et al. (2007). Cytoplasmic destruction of p53 by the endoplasmic reticulum-resident ubiquitin ligase ‘Synoviolin’. EMBO J 26, 113-122.). Transfection of siRNA into cells was performed in accordance with a protocol with Lipofectamine 2000 (Invitrogen, Corporation).
When a protein level of the PGC-1β was investigated as a confirmation, the protein level of the PGC-1β was doubled in LS-102 treated cells. On the other hand, the expression of PGC-1β mRNA was not changed by the LS-102 treatment.

[2] = target: T1, binding between synoviolin and PGC-1β (Homo sapiens, UniProt Q86TM6, E545G); experiment: in vitro binding assay between synoviolin and PGC-1β (Western blot)
T1 construct: GST fusion synoviolin which lack transmembrane domain (GST syno ΔTM); made in house
Method: In order to investigate an influence on PGC-1β functions by inhibitor of E3 ubiquitin ligase activity of synoviolin, an effect on inhibition of binding between the synoviolin and the PGC-1β was firstly investigated. Specifically, in a usual binding assay using MBP-PGC-1β-His protein and GST-Syno ΔTM protein, LS-102 (PARMACOPIEA, Corporation) was added and these proteins were incubated for 12 hours. Then, these proteins were separated by SDS-PAGE of 12% gel concentration, and Western blot was performed. Anti-GST antibody diluted 2500 folds were used as a primary antibody, and anti-rat HRP diluted 10000 folds was used as a secondary antibody.
In order to obtain a substance which inhibits the binding between synoviolin and PGC-1β, with respect to the substances shown in the following table 2 included in screening library relating to E3 ubiquitin ligase, in order to examine influence on the binding between synoviolin and PGC-1β, in vitro binding assays similar to the examples 3 to 6 were performed. The results were shown in FIGS. 11-1, 11-2, 11-3, and 11-4. In this example, 2 μg of PGC-1β (see FIG. 4) and 2 μg of GST-Syno ΔTM (see FIG. 6) were used.
The binding assay was performed using the following assay system. 2 μg of MBP-PGC-1β His (1-367aa) and 2 μg of the modified synoviolin fused to GST were bound for 12 hours in a buffer (20 mM Tris-HCl pH 8.0, 100 mM NaCl, 1 mM EDTA. 0.1% NP-40, 5% glucose 1, and protease inhibitors) to detect PGC-1β using anti-PGC-1β antibody.

[3] = test system: mitochondria in adipose tissue cells; experiment: mitochondria in adipose tissue of mice given LS-102 (electron micrographs); format: in vivo, C57BL/6J mice; details: 50 mg/kg body weight per day intraperitoneally, fifty seventh day, vs DMSO, FIG. 18
Method: 50 mg/kg body weight of LS-102 per day or solvent (DMSO) as a control was administered intraperitoneally to 7 to 8-week-old C57BL/6J mice to observe adipose tissue slices of the mice of fifty seventh day after the administration using a microscope. […] Magnifications of the electron microscope were 2,500 folds and 10,000 folds and the white bars indicate scale bars (2 μm in the 2,500 folds and 500 nm in the 10,000 folds).

PGC-1β [4] = experiment: PGC-1β protein and mRNA level in skin fibroblasts from syno cKO mice (Western blot, real-time PCR); format: cell-based, mouse
Method: Skin fibroblasts from syno CKO mice were cultivated in DMEM medium and treated by tamoxifen (Tam) or solvent (DMSO) for 48 hours. Cell extracts or total RNA were collected, each was used for western blot and real-time PCR, respectively.
Further, in order to investigate whether […] was involved in synoviolin-mediated degradation of PGC-1β in cells, after the treatment by tamoxifen or solvent in the above experiment, 10 μM of MG-132, which is a proteasome inhibitor, was added and treated for two hours, and then, similar experiment was performed.

[5] = test system: PPRE ×3-TK-luc reporter (PGC-1β coactivator function); experiment: Luciferase assay with PPRE ×3-TK-luc reporter in HEK-293 cells; format: cell-based
Method: Specifically, control siRNA or Syno siRNA was temporarily transfected in HEK-293 cells. Reporter plasmid containing PPAR binding sites (PPRE ×3-TK-luc), CMV-β-gal expression construct, or siRNA was temporarily transfected in HEK-293 cells. After 16 hours, DMSO or Wy-14643 was treated for 6 hours, and then Luciferase assay was performed (FIG. 9B).
After 16 hours from the transfection, cells were treated with solvent (DMSO) or Wy-14643 for 6 hours and the Luciferase assay was performed.
The luciferase assay was performed similar to the example 9 except for using 5 μM of LS-102, 0.1 μM and 0.5 μM of 348, 0.1 μM and 5 μM of 349, and 5 μM of 351 and 355 instead of transfecting the Syno siRNA in the example 9. The same volume of DMSO, which is a solvent of each compound, was added as a control.

[6] = test system: mitochondria in HEK-293 cells; experiment: electron microscope observation of mitochondria in treated cells; format: cell-based; details: 1 μM, observed after 72 hours, FIG. 13
Method: The observation of mitochondria was performed similar to the example 9 except for observing after 72 hours from adding 1 μM of 348, 349, 351 and 355 to cells instead of transfecting the Syno siRNA in the example 9.

[7] = target: T2, PGC-1β ubiquitination by synoviolin (SYVN1) (Homo sapiens, UniProt Q86TM6); experiment: in vitro ubiquitination of PGC-1β by synoviolin (Western blot); format: biochemical; details: for inhibiting activity of the PGC-1β ubiquitination, concentration dependency: 1 μM and 10 μM, FIG. 21; for polyubiquitination of PGC-1β: compared to control group (DMSO), FIG. 11-4
T2 construct: MBP-Syno ΔTM-His means synoviolin in which transmembrane domain has been deleted; His tag (C)
Method: The ubiquitin assay was performed using the following assay system. E1-His 125 ng, UbcH5C 150 ng, MBP-SYVN1 ΔTM-His 150 ng, GST-PGC-1β (1-367 aa; GST-P5), and HA-ubiquitin (HA-Ub) 750 ng were reacted at 30° C. for 2 hours in a buffer (50 mM Tris-HCL pH 7.5, 5 mM MgCl2, 0.6 mM DTT, and 2 mM ATP) to be ubiquitinated. Thereafter, the ubiquitinated proteins were bound to Glutathione Sepharose in GST washing buffer (50 mM Tris-HCl pH 7.5, 0.5 M NaCl, 1% Triton X, 1 mM EDTA, 1 mM DTT, and protease inhibitors). After washing with the GST washing buffer, ubiquitination of PGC-1β was detected by Western blotting using anti-PGC-1β antibody and anti-HA antibody.
In order to examine the concentration dependency of the inhibiting activity of test substances 348 and 349 in PGC-1β ubiquitination by synoviolin (SYVN1), the in vitro binding assay was performed in the same manner as described in Example 11.

synoviolin protein = target: T3, synoviolin protein (Homo sapiens, UniProt Q86TM6); details: disclosed in JP 2008-74753 A; cited from earlier work
T3 construct: MBP-Syno ΔTM-His means synoviolin in which transmembrane domain has been deleted; His tag (C)

[8] = 2 μg PGC-1β and 2 μg GST-Syno ΔTM, FIGS. 11-1 to 11-4

T2 sequence (Q86TM6 246-617 limits assumed): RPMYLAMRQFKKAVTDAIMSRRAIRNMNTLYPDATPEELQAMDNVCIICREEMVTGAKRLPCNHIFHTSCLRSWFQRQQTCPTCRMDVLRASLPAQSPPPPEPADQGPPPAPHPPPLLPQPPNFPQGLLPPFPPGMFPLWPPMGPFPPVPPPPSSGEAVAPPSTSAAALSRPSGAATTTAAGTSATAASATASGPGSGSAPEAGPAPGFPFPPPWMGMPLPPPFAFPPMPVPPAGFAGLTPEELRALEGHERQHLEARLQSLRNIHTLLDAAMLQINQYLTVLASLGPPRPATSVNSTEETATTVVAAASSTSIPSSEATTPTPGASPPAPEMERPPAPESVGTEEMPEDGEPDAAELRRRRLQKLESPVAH
T1 sequence (Q86TM6 236-617 E545G): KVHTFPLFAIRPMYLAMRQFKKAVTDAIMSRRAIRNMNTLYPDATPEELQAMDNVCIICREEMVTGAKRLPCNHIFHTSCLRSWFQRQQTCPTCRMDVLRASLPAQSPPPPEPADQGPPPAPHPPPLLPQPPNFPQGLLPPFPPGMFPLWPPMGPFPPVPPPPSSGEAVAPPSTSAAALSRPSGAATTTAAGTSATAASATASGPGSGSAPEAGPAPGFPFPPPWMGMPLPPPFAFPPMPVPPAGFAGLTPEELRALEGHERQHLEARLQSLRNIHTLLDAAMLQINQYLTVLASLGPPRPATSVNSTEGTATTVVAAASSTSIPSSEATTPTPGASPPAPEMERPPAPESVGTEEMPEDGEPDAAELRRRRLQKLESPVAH
T3 sequence (Q86TM6 246-617 limits assumed): as the sequence (Q86TM6 246-617 limits assumed) above

- binding between synoviolin and PGC-1β ([2]; MBP-PGC-1β-His and GST-Syno ΔTM, incubated 12 hours, FIG. 10): has an effect on inhibition of binding
SMILES: CCNCCN(CC)c1nc(Nc2ccc3ncoc3c2)nc(N[C@@H](C)C2CCCCC2)n1 [LS-102]
- protein level of the PGC-1β (PGC-1β [1]; LS-102 treated cells): doubled
- expression of PGC-1β mRNA (PGC-1β [1]; LS-102 treatment): not changed
- number and volume density of mitochondria in the adipose tissue cells [3]: increases in number and volume density of mitochondria

SMILES: CC(C)C[C@@H](C=O)NC(=O)[C@H](CC(C)C)NC(=O)[C@H](CC(C)C)NC(=O)OCc1ccccc1 [MG-132] (Cbz-Leu-Leu-Leu-aldehyde)
- protein level of PGC-1β (PGC-1β [4]; 10 μM MG-132 for two hours, solvent-treated (DMSO-treated) skin fibroblasts): 1.6 folds
- protein level of PGC-1β, additive effect of tamoxifen treatment and MG-132 (PGC-1β [4]; 10 μM MG-132 for two hours, tamoxifen-treated skin fibroblasts): 1.1 folds

SMILES: CC/C(=C(\c1ccccc1)c1ccc(OCCN(C)C)cc1)c1ccccc1 [Tam]
- protein level of PGC-1β (PGC-1β [4]; Tam treatment 48 hours (induces synoviolin knockout) vs DMSO, skin fibroblasts of syno cKO mice): 1.4 folds
- mRNA level of PGC-1β (PGC-1β [4]; Tam treatment 48 hours, skin fibroblasts of syno cKO mice): no change

SMILES: Cc1cccc(Nc2cc(Cl)nc(SCC(=O)O)n2)c1C [Wy-1463, reference compound]
- PPRE ×3-TK-luc reporter activity ([5]; PPARα agonist treated for 6 hours vs DMSO, FIG. 9B): induced

SMILES: O=C1C=CC(=O)c2c(O)ccc(O)c21 [compound 348]
- binding between synoviolin and PGC-1β [2, 8]: inhibition of the binding
- number and size of mitochondria [6]: proliferation (increase in the number) of mitochondria or increase in size of mitochondria has been observed
- inhibiting activity of the PGC-1β ubiquitination, concentration dependency [7]: in 10 μM is higher than that in 1 μM
- polyubiquitination of PGC-1β [7]: suppressed

SMILES: O=C1C=CC(=O)c2c(O)cccc21 [compound 349]
- binding between synoviolin and PGC-1β [2, 8]: inhibition of the binding
- number and size of mitochondria [6]: proliferation (increase in the number) of mitochondria or increase in size of mitochondria has been observed
- inhibiting activity of the PGC-1β ubiquitination, concentration dependency [7]: in 10 μM is higher than that in 1 μM
- polyubiquitination of PGC-1β [7]: suppressed

- binding between synoviolin and PGC-1β [2, 8]: enhances the binding
SMILES: CC1=CC(=O)c2ccccc2C1=O [compound 351]
- luciferase activity ([5]; compounds instead of Syno siRNA (351: 5 μM), DMSO control, FIG. 12): lowered

- binding between synoviolin and PGC-1β [2, 8]: inhibition of the binding
SMILES: O=C1CCC(=O)c2c(O)cccc21 [compound 355]
- number and size of mitochondria [6]: proliferation (increase in the number) of mitochondria or increase in size of mitochondria has been observed

- binding between synoviolin and PGC-1β [2, 8]: inhibition of the binding
SMILES: O=C1C=CC(=O)c2c(Cl)ccc(O)c21 [compound 358]

SMILES: CC1=CC(=O)c2c(O)cccc2C1=O [plumbagin, 2-methyl-5-hydroxy-1,4-naphthoquinone]
- self-ubiquitination of synoviolin protein (synoviolin protein): inhibit self-ubiquitination of synoviolin protein

SMILES: O=c1c(O)c(-c2ccc(O)c(O)c2)oc2cc(O)cc(O)c12 [quercetin, 2-(3,4-dihydroxyphenyl)-3,5,7-trihydroxy-4H-1-benzopyrano-4-on, reference compound]
- binding between synoviolin and PGC-1β [2, 8]: inhibition of the binding
- self-ubiquitination of synoviolin protein (synoviolin protein): inhibit self-ubiquitination of synoviolin protein

Source: patent US9766241B2, “PGC-1beta-protein-function regulator, mitochondria-function regulator, anti-obesity agent, and screening method therefor” (priority 2012, dated 2017)
